From patent US12358886B2, “Heterocyclic compounds for use in the treatment of cancer” (Artios Pharma Limited, priority 2019, dated 2025) come the findings set out here.

For one experiment, the target named is Polθ protein (amino acids 2-2590) (Homo sapiens, UniProt O75417). Put plainly: Polθ full length enzyme potency assay (PicoGreen). The settings on record: Polθ IC50 (nM), full length N-His, C-term FLAG tagged Polθ, PicoGreen fluorescence, 12 point concentration response.
Polθ protein (amino acids 2-2590), sequence (O75417 2-2590): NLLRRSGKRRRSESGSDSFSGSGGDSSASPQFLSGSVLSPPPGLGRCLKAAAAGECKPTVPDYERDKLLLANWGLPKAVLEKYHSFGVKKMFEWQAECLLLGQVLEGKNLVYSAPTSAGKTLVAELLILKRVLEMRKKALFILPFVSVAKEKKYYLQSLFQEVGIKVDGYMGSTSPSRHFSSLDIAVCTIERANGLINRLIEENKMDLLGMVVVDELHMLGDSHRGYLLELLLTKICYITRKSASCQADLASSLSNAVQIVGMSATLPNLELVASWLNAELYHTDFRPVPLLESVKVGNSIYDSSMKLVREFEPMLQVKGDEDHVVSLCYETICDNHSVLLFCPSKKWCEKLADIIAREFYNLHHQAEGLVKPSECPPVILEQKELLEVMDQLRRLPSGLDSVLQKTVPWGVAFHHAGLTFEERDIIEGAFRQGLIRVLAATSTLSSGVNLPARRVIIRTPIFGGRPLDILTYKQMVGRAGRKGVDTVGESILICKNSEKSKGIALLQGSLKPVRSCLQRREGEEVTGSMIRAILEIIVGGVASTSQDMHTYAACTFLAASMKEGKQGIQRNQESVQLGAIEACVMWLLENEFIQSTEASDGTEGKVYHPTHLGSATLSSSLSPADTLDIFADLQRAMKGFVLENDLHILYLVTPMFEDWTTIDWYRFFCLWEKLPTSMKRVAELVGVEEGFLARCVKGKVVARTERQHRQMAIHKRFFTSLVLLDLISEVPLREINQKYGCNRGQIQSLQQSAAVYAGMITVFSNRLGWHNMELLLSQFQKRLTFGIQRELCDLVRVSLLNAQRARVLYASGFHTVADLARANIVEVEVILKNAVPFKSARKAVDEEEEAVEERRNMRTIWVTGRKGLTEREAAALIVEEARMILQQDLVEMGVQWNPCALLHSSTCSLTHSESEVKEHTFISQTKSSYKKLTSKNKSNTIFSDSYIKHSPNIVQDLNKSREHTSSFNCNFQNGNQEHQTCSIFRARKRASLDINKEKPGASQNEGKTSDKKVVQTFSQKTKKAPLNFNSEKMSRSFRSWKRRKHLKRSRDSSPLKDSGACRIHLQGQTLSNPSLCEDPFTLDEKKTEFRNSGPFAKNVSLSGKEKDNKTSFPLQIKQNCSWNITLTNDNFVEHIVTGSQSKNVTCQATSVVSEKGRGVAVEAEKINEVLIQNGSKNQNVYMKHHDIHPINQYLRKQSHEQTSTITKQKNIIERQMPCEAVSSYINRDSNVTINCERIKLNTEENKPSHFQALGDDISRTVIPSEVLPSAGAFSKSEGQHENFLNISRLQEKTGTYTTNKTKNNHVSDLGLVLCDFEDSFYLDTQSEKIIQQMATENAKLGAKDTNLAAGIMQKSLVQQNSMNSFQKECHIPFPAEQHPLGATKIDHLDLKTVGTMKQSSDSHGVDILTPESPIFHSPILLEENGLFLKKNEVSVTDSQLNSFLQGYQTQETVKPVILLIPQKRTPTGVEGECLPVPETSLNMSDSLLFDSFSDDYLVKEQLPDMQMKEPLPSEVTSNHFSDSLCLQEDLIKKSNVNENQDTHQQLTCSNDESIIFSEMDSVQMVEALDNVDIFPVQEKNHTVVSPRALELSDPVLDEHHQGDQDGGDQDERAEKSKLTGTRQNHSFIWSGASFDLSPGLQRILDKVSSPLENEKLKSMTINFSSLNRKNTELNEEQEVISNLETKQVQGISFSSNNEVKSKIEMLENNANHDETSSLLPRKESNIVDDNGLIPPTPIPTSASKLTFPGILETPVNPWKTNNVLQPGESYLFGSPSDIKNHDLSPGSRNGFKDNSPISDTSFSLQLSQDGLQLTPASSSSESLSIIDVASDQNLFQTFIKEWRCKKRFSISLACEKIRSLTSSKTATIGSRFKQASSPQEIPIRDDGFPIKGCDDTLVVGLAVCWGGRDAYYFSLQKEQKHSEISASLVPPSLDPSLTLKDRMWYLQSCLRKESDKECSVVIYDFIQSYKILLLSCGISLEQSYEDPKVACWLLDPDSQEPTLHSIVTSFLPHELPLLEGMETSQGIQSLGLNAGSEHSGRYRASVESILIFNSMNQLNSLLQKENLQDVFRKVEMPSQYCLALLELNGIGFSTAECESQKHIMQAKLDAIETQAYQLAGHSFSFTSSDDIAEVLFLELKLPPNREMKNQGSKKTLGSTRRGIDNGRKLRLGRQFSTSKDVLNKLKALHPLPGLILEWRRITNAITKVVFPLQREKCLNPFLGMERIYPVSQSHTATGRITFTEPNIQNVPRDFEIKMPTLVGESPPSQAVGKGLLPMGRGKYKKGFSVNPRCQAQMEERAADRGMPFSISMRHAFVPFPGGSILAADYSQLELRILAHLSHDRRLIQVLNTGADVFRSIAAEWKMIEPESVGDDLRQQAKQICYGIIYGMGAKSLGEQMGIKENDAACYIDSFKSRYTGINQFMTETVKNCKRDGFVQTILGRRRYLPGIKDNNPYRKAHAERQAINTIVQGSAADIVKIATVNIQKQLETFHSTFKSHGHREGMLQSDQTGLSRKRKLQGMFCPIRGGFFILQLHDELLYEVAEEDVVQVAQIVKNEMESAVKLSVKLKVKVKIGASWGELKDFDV
Protocol: Polθ Full Length Enzyme Potency Assay
PicoGreen assay was used to measure the ability of compounds to inhibit the activity of Polθ in vitro. […] DMSO concentration was maintained at 1% by back filling with DMSO solution. […] This was dispensed into each well of the compound plate using a VIAFLO 16 channel manual pipette (Integra) and pre-incubated at rt for 30 min. 3 μL of 2× working solution of dNTPs (40 μM) (dATP, dCTP, dGTP, dTTP; Sigma D6500, D4635, D4010, T0251) diluted in assay buffer was then added and the reaction incubated for 60 min at rt. The reaction was stopped by addition of 10 mM EDTA, 25 mM Tris pH 7.5 and 1:200 dilution of PicoGreen dye (Invitrogen P7581).
Turning to `Cc1cc(C(F)(F)F)cc(N2C(=O)N(CCN3CCC3)C[C@H]2C(=O)N(C)c2ccc(F)c(Cl)c2F)n1` [Example 201, (S)-1-(2-(Azetidin-1-yl)ethyl)-N-(3-chloro-2,4-difluorophenyl)-N-methyl-3-(6-methyl-4-(trifluoromethyl)-pyridin-2-yl)-2-oxoimidazolidine-4-carboxamide], half-maximal inhibition (IC50) required 26 nM.

`Cc1cc(C(F)(F)F)cc(N2C(=O)N(CCN(C)C)C[C@H]2C(=O)N(C)c2ccc(F)c(Cl)c2)n1` [Example 182, (S)-N-(3-Chloro-4-fluorophenyl)-1-(2-(dimethylamino)ethyl)-N-methyl-3-(6-methyl-4-(trifluoromethyl)pyridin-2-yl)-2-oxoimidazolidine-4-carboxamide]: the 50% inhibitory concentration (IC50) (in general, the concentration that inhibits the measured activity by half) is 61 nM.

`Cc1cc(C(F)(F)F)cc(N2C(=O)OC[C@H]2C(=O)N(C)c2ccc(Cl)c(Cl)c2)n1` [Example 89, (S)-N-(3,4-Dichlorophenyl)-N-methyl-3-(6-methyl-4-(trifluoromethyl)-pyridin-2-yl)-2-oxooxazolidine-4-carboxamide] had an IC50 of 16 nM.

Turning to `CCN(C(=O)[C@@H]1C[C@H](N(C)[C@H]2CCC[C@H]2O)CN1c1cc(C(F)(F)F)cc(C)n1)c1ccc(F)c(F)c1` [Example 142, (2S,4S)-N-(3,4-Difluorophenyl)-N-ethyl-4-(((1S,2R)-2-hydroxycyclopentyl)(methyl)amino)-1-(6-methyl-4-(trifluoromethyl)pyridin-2-yl)pyrrolidine-2-carboxamide], the IC50 was found to be 160 nM.

`Cc1cc(C(F)(F)F)cc(N2C(=O)C[C@@H](O)[C@H]2C(=O)N(C)c2ccc(F)c(Cl)c2)n1` [Example 80, (2S,3R)—N-(3-Chloro-4-fluorophenyl)-3-hydroxy-N-methyl-1-(6-methyl-4-(trifluoromethyl)-pyridin-2-yl)-5-oxopyrrolidine-2-carboxamide] returned a concentration for half-maximal inhibition (IC50) of 6 nM.

`Cc1cc(C(F)(F)F)cc(N2C(=O)[C@H]3OC(C)(C)O[C@H]3[C@H]2C(=O)N(C)c2ccc(F)c(Cl)c2F)n1` [Example 69, (3aS,4S,6aS)—N-(3-Chloro-2,4-difluorophenyl)-N,2,2-trimethyl-5-(6-methyl-4-(trifluoromethyl)-pyridin-2-yl)-6-oxotetrahydro-4H-[1,3]dioxolo[4,5-c]pyrrole-4-carboxamide]: the IC50 was 69 nM.

As to `Cc1cc(C(F)(F)F)cc(N2C(=O)OC[C@H]2C(=O)N(C)c2ccc(F)c(O)c2)n1` [Example 106, (S)—N-(4-Fluoro-3-hydroxyphenyl)-N-methyl-3-(6-methyl-4-(trifluoromethyl)pyridin-2-yl)-2-oxooxazolidine-4-carboxamide], it took 324 nM to reach half-maximal inhibition (IC50).

For `Cc1cccc(N(C)C(=O)[C@@H]2C[C@H](O)CN2c2nc(C)cc(C)c2C#N)c1` [Example 9, (2S,4S)-1-(3-Cyano-4,6-dimethylpyridin-2-yl)-4-hydroxy-N-methyl-N-(m-tolyl)pyrrolidine-2-carboxamide], it took 87 nM to reach half-maximal inhibition (IC50).

The compound `Cc1cc(C(F)(F)F)cc(N2C(=O)N(CCN3CCC3)C[C@H]2C(=O)N(C)c2ccc(F)c(Cl)c2)n1` [Example 200, (S)-1-(2-(Azetidin-1-yl)ethyl)-N-(3-chloro-4-fluorophenyl)-N-methyl-3-(6-methyl-4-(trifluoromethyl)pyridin-2-yl)-2-oxoimidazolidine-4-carboxamide] returned an IC50 of 12 nM.

As for `CCN(C(=O)[C@@H]1C[C@H](N[C@@H]2COCC[C@H]2O)CN1c1cc(C(F)(F)F)cc(C)n1)c1ccc(F)c(F)c1` [Example 132, (2S,4S)-N-(3,4-Difluorophenyl)-N-ethyl-4-(((3R,4R)-4-hydroxytetrahydro-2H-pyran-3-yl)amino)-1-(6-methyl-4-(trifluoromethyl)pyridin-2-yl)pyrrolidine-2-carboxamide], the IC50 is 156 nM.

Take `Cc1cc(C(F)(F)F)cc(N2C(=O)[C@@H](O)[C@@H](O)[C@H]2C(=O)N(C)c2ccc(F)c(Cl)c2)n1` [Example 65, (2S,3S,4S)—N-(3-Chloro-4-fluorophenyl)-3,4-dihydroxy-N-methyl-1-(6-methyl-4-(trifluoromethyl)pyridin-2-yl)-5-oxopyrrolidine-2-carboxamide]: the IC50 was 8 nM.

Compound `Cc1cc(C(F)(F)F)cc(N2C(=O)NC[C@H]2C(=O)N(C)c2ccc3c(F)c[nH]c3n2)n1` [Example 239, (S)—N-(3-Fluoro-1H-pyrrolo[2,3-b]pyridin-6-yl)-N-methyl-3-(6-methyl-4-(trifluoromethyl)pyridin-2-yl)-2-oxoimidazolidine-4-carboxamide] yielded a 50% inhibitory concentration (IC50) of 6 nM.

As to `Cc1cc(C(F)(F)F)cc(N2C(=O)N(CCN3CC(O)C3)C[C@H]2C(=O)N(C)c2ccc(F)c(Cl)c2F)n1` [Example 202, (S)-N-(3-Chloro-2,4-difluorophenyl)-1-(2-(3-hydroxyazetidin-1-yl)ethyl)-N-methyl-3-(6-methyl-4-(trifluoromethyl)pyridin-2-yl)-2-oxoimidazolidine-4-carboxamide], half-maximal inhibition (IC50) was put at 7 nM.

With `CC(=O)N(C)C1CCN(CCN2C[C@@H](C(=O)N(C)c3ccc(F)c(Cl)c3F)N(c3cc(C(F)(F)F)cc(C)n3)C2=O)C1` (stereo partly drawn) [Example 207, (4S)-N-(3-Chloro-2,4-difluoro-phenyl)-N-methyl-3-(6-methyl-4-(trifluoromethyl)pyridin-2-yl)-1-(2-(3-(N-methylacetamido)-pyrrolidin-1-yl)ethyl)-2-oxoimidazolidine-4-carboxamide], the IC50 was 7 nM.

As for `CCN(C(=O)[C@@H]1C[C@H](N(C)CCS(C)(=O)=O)CN1c1nc(C)cc(C)c1C#N)c1cccc(C)c1` [Example 46, (2S,4S)-1-(3-Cyano-4,6-dimethylpyridin-2-yl)-N-ethyl-4-(methyl(2-(methylsulfonyl)-ethyl)amino)-N-(m-tolyl)-pyrrolidine-2-carboxamide], the IC50 turned out to be 227 nM.

With `CCN(C(=O)[C@H]1C[C@@H](N2CCNCC2)CN1c1nc(C)cc(C)c1C#N)c1cccc(C)c1` (stereo in doubt) [Example 50, (2R,4R)-1-(3-Cyano-4,6-dimethylpyridin-2-yl)-N-ethyl-4-(piperazin-1-yl)-N-(m-tolyl)-pyrrolidine-2-carboxamide], the IC50 worked out at 232 nM.

In turn, `Cc1cc(C(F)(F)F)cc(N2C(=O)N(CC(O)CN3CCC(F)(F)C3)C[C@H]2C(=O)N(C)c2ccc(F)c(Cl)c2F)n1` (stereo partly drawn) [Example 216, (4S)—N-(3-Chloro-2,4-difluorophenyl)-1-(3-(3,3-difluoropyrrolidin-1-yl)-2-hydroxy-propyl)-N-methyl-3-(6-methyl-4-(trifluoromethyl)pyridin-2-yl)-2-oxoimidazolidine-4-carboxamide] displayed an IC50 of 4 nM.

For the compound `COc1cc(N(C)C(=O)[C@@H]2COC(=O)N2c2cc(C(F)(F)F)cc(C)n2)ccc1F` [Example 90, (S)-N-(4-Fluoro-3-methoxyphenyl)-N-methyl-3-(6-methyl-4-(trifluoromethyl)pyridin-2-yl)-2-oxooxazolidine-4-carboxamide], the IC50 was 226 nM.

Take `Cc1cccc(N(C)C(=O)[C@@H]2[C@H](O)[C@H](O)CN2c2nc(C)cc(C(F)(F)F)c2C#N)c1` [Example 54, (2S,3S,4R)-1-(3-Cyano-6-methyl-4-(trifluoromethyl)pyridin-2-yl)-3,4-dihydroxy-N-methyl-N-(m-tolyl)pyrrolidine-2-carboxamide]: the concentration for half-maximal inhibition (IC50) worked out at 13 nM.

In turn, `Cc1cc(C(F)(F)F)cc(N2C(=O)N(CC3CN(C)CCO3)C[C@H]2C(=O)N(C)c2ccc(F)c(Cl)c2F)n1` (stereo partly drawn) [Example 219, (4S)—N-(3-Chloro-2,4-difluorophenyl)-N-methyl-3-(6-methyl-4-(trifluoromethyl)pyridin-2-yl)-1-((4-methylmorpholin-2-yl)methyl)-2-oxoimidazolidine-4-carboxamide] yielded an IC50 of 11 nM.

`CCN(C(=O)[C@@H]1C[C@H](N)CN1c1nc(C)cc(C)c1C#N)c1cccc(C)c1` [Example 38, (2S,4S)-4-Amino-1-(3-cyano-4,6-dimethylpyridin-2-yl)-N-ethyl-N-(m-tolyl)pyrrolidine-2-carboxamide] registered an IC50 of 273 nM.

Compound `Cc1cc(C(F)(F)F)cc(N2C(=O)OC[C@H]2C(=O)N(C)c2ccc(F)c(C)c2F)n1` [Example 100, (S)-N-(2,4-Difluoro-3-methylphenyl)-N-methyl-3-(6-methyl-4-(trifluoromethyl)pyridin-2-yl)-2-oxooxazolidine-4-carboxamide] came in with an IC50 of 4 nM.

The same experiment, now with this note: read-out: Polθ IC50; full length N-His, C-term FLAG tagged Polθ, PicoGreen fluorescence, 12 point concentration response.
`Cc1cc(C(F)(F)F)c(C#N)c(N2C[C@@H](O)C[C@H]2C(=O)N(C)c2ccc(F)c(Cl)c2)n1` [Example 5, (2S,4S)—N-(3-Chloro-4-fluorophenyl)-1-(3-cyano-6-methyl-4-(trifluoro-methyl)pyridin-2-yl)-4-hydroxy-N-methylpyrrolidine-2-carboxamide]: the IC50 is 16 nM.

Turning to `Cc1cccc(N(C)C(=O)[C@@H]2COC(=O)N2c2cc(C(F)(F)F)cc(C)n2)c1` [Example 58, (S)—N-Methyl-3-(6-methyl-4-(trifluoromethyl)pyridin-2-yl)-2-oxo-N-(m-tolyl)oxazolidine-4-carboxamide], the IC50 is 7 nM.

With `Cc1cccc(N(C)C(=O)[C@@H]2[C@@H](O)CCN2c2nc(C)cc(C(F)(F)F)c2C#N)c1` [Example 26, (2S,3S)-1-(3-Cyano-6-methyl-4-(trifluoromethyl)pyridin-2-yl)-3-hydroxy-N-methyl-N-(m-tolyl)pyrrolidine-2-carboxamide], the concentration for half-maximal inhibition (IC50) was found to be 61 nM.

With `CCN(C(=O)[C@@H]1COC(=O)N1c1cc(C(F)(F)F)cc(C)n1)c1ccc(F)c(Cl)c1` [Example 103, (S)-N-(3-Chloro-4-fluorophenyl)-N-ethyl-3-(6-methyl-4-(trifluoromethyl)-pyridin-2-yl)-2-oxooxazolidine-4-carboxamide], the IC50 was determined as 54 nM.

For `CCN(C(=O)[C@@H]1C[C@H](O)C(=O)N1c1cc(C(F)(F)F)cc(C)n1)c1ccc(F)c(Cl)c1` [Example 75, (2S,4S)—N-(3-Chloro-4-fluorophenyl)-N-ethyl-4-hydroxy-1-(6-methyl-4-(trifluoromethyl)pyridin-2-yl)-5-oxopyrrolidine-2-carboxamide], the IC50 turned out to be 95 nM.
